According to BigSolDB 2.1:

O=C1CCc2cc(O)ccc2N1
solubility (mole fraction)
Details | in THF | in acetonitrile | in ethanol | in ethyl acetate | in isobutanol | in isopropanol | in methanol | in methyl acetate | in n-butanol | in n-propanol
278.15 K | 0.00248 | 0.000292 | 0.00214 | 0.000666 | 0.00114 | 0.00186 | 0.00224 | 0.00155 | 0.00181 | 0.00173
283.15 K | 0.00277 | 0.000345 | 0.00242 | 0.000723 | 0.00134 | 0.00226 | 0.0027 | 0.00172 | 0.00201 | 0.00202
288.15 K | 0.00307 | 0.000403 | 0.00281 | 0.000792 | 0.00162 | 0.0026 | 0.00309 | 0.00188 | 0.00232 | 0.00236
293.15 K | 0.00346 | 0.00048 | 0.00324 | 0.00086 | 0.00192 | 0.003 | 0.00356 | 0.00209 | 0.00269 | 0.0027
298.15 K | 0.00383 | 0.000576 | 0.00373 | 0.000927 | 0.00229 | 0.00346 | 0.00412 | 0.00231 | 0.00309 | 0.00314
303.15 K | 0.00424 | 0.000668 | 0.00431 | 0.000992 | 0.00268 | 0.00395 | 0.0048 | 0.00257 | 0.00357 | 0.00364
308.15 K | 0.00473 | 0.000784 | 0.00496 | 0.00108 | 0.00316 | 0.00471 | 0.00551 | 0.00287 | 0.00409 | 0.00419
313.15 K | 0.00526 | 0.000887 | 0.00574 | 0.00115 | 0.00378 | 0.0055 | 0.00648 | 0.00316 | 0.00473 | 0.00482
318.15 K | 0.00591 | 0.00102 | 0.00664 | 0.00122 | 0.00427 | 0.00631 | 0.00745 | 0.00352 | 0.00543 | 0.00554
323.15 K | 0.00651 | 0.00118 | 0.00761 | 0.00131 | 0.00493 | 0.00721 | 0.00838 | 0.00391 | 0.00623 | 0.00641
